Laboratory results as given in ChEMBL document CHEMBL5620433, “Design and synthesis of new 1,2,3-triazoles derived from eugenol and analogues with in vitro and in vivo activity against Trypanosoma cruzi” (Eur J Med Chem, 2023).
The source made the active and inactive calls. No cut-off for these calls is given here.

Assays:
Trypanosoma cruzi [1] = experiment: Antitrypanosomal activity against epimastigote form of Trypanosoma cruzi Y assessed as inhibition of parasite proliferation incubated for 72 hrs by resazurin dye based analysis; format: functional, organism-based
H9c2 = experiment: (§1) Cytotoxicity against rat H9c2 cells assessed as reduction in cell viability measured after 72 hrs by resazurin due based analysis; format: toxicity; details: h9c2
[2] = Selectivity index, ratio of CC50 for cytotoxicity against rat H9c2 cells to IC50 for antitrypanosomal activity against epimastigote form of Trypanosoma cruzi Y; format: toxicity, cell-based; details: read-out: Ratio IC50
[3] = target: Cruzipain (Trypanosoma cruzi) (UniProt P25779); experiment: Inhibition of recombinant Trypanosoma cruzi Cruzain using Z-FR-AMC as substrate at 100 uM preincubated with enzyme for 10 mins and measured for 5 mins by fluorescence based analysis; details: time 15.0 min
Cruzipain (Trypanosoma cruzi), sequence (P25779 123-467 limits assumed): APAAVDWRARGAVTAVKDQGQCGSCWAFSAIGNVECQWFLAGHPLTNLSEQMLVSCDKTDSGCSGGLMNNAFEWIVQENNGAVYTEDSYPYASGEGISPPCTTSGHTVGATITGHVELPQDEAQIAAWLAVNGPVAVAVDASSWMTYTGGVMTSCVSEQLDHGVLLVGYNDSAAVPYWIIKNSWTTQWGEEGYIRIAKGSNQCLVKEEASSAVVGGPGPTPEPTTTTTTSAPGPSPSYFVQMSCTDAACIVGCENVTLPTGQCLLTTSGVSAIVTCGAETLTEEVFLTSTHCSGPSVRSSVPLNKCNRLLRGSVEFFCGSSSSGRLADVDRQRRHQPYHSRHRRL

[4] = target: Cruzipain (Trypanosoma cruzi) (UniProt P25779); experiment: Inhibition of recombinant Trypanosoma cruzi Cruzain using Z-FR-AMC as substrate at 100 uM measured for 5 mins by fluorescence based analysis
[5] = as §1; format: toxicity; details: rat, H9c2 cells
Trypanosoma cruzi [6] = experiment: Antitrypanosomal activity against trypomastigote form of Trypanosoma cruzi Y assessed as inhibition of parasite viability incubated for 24 hrs by light microscopy; format: functional, organism-based
[7] = Toxicity in po dosed Swiss mouse infected with trypomastigote form of Trypanosoma cruzi Y assessed as bristly fur administered via gavage for 7 days from day 5 post-infection and measured on day 13 post-infection; format: organism-based; details: in vivo, 192 h, time 8 day
[8] = Toxicity in po dosed Swiss mouse infected with trypomastigote form of Trypanosoma cruzi Y assessed as diarrhea administered via gavage for 7 days from day 5 post-infection and measured on day 13 post-infection; format: organism-based; details: in vivo, 192 h, time 8 day
[9] = Toxicity in po dosed Swiss mouse infected with trypomastigote form of Trypanosoma cruzi Y assessed as apathy administered via gavage for 7 days from day 5 post-infection and measured on day 13 post-infection; format: organism-based; details: in vivo, 192 h, time 8 day
[10] = Toxicity in po dosed Swiss mouse infected with trypomastigote form of Trypanosoma cruzi Y assessed as mortality administered via gavage for 7 days from day 5 post-infection and measured on day 13 post-infection; format: organism-based; details: in vivo, 192 h, time 8 day
[11] = Toxicity in Swiss mouse infected with trypomastigote form of Trypanosoma cruzi Y assessed as increase in weight gain at 10 to 100 mg/kg, po administered via gavage for 7 days from day 5 post-infection; format: organism-based; details: in vivo, 168 h, dose 10-100 mg/kg, time 7 day
[12] = Hepatotoxicity in Swiss mouse infected with trypomastigote form of Trypanosoma cruzi Y assessed as plasma alanine aminotransferase level at 50 to 100 mg/kg, po administered via gavage for 7 days from day 5 post-infection by spectrophotometry; format: toxicity, organism-based; details: in vivo, 168 h, dose 50-100 mg/kg, time 7 day
[13] = Hepatotoxicity in Swiss mouse infected with trypomastigote form of Trypanosoma cruzi Y assessed as plasma aspartate aminotransferase level at 50 to 100 mg/kg, po administered via gavage for 7 days from day 5 post-infection by spectrophotometry; format: toxicity, organism-based; details: in vivo, 168 h, dose 50-100 mg/kg, time 7 day
Trypanosoma cruzi [14] = experiment: Anti-trypanosomal activity against trypomastigote form of Trypanosoma cruzi Y infected in Swiss mouse assessed as reduction in parasitemia at 10 to 100 mg/kg, po administered via gavage for 7 days from day 5 post-infection; format: functional, organism-based; details: dose 10-100 mg/kg, time 7.0 day
Trypanosoma cruzi [15] = experiment: Anti-trypanosomal activity against epimastigote form of Trypanosoma cruzi by resazurin microtiter assay; format: functional, organism-based
Trypanosoma cruzi [16] = experiment: Anti-trypanosomal activity against trypomastigote form of Trypanosoma cruzi Y infected in mouse assessed as reduction in parasitemia at 100 mg/kg, po for 7 days; format: functional; details: 168 h, time 7 day
Trypanosoma cruzi [17] = experiment: Anti-trypanosomal activity against trypomastigote form of Trypanosoma cruzi Y infected in Swiss mouse assessed as reduction in parasitemia at 100 mg/kg, po administered via gavage for 2 days from day 5 post-infection; format: functional; details: 48 h, time 2 day
Mus musculus [18] = experiment: Reduction in plasma total IgG level in Swiss mouse infected with trypomastigote form of Trypanosoma cruzi Y at 100 mg/kg, po administered via gavage for 7 days from day 5 post-infection by ELISA; format: functional, organism-based; details: time 7.0 day
Mus musculus [19] = experiment: Reduction in plasma IgG1 level in Swiss mouse infected with trypomastigote form of Trypanosoma cruzi Y at 100 mg/kg, po administered via gavage for 7 days from day 5 post-infection by ELISA; format: functional, organism-based; details: time 7.0 day
Mus musculus [20] = experiment: Reduction in plasma IgG2 level in Swiss mouse infected with trypomastigote form of Trypanosoma cruzi Y at 100 mg/kg, po administered via gavage for 7 days from day 5 post-infection by ELISA; format: functional, organism-based; details: time 7.0 day

Structure (SMILES) | IC50 (Trypanosoma cruzi [1]) | selectivity ratio [2] | inhibition [3] | inhibition [4] | IC50 at 72 h [5] | also measured
CCCc1ccc(OCC(=O)Cn2cc(-c3ccccc3)nn2)c(OC)c1 | 558 µM | 1.9 | 7.2% | 7.2% | – | IC50 (H9c2): 1070 µM
C=CCc1ccc(OCC(O)Cn2cc(COc3ccc(C(C)C)cc3)nn2)c(OC)c1 (racemic) | 826 µM | 0.5 | 7.2% | 7.2% | 480 µM | –
CCCc1ccc(OCC(O)Cn2cc(COc3ccc(OC)cc3)nn2)c(OC)c1 (racemic) | 34.4 µM | 9.1 | 7.2% | 7.2% | 315 µM | –
COc1ccccc1OCC(O)Cn1cc(COc2ccc(C(C)C)cc2)nn1 (racemic) | 64.3 µM | – | 7.2% | 7.2% | – | –
CCCc1ccc(OCC(O)Cn2cc(COc3ccc(C(C)C)cc3)nn2)c(OC)c1 (racemic) | 41.1 µM | 7.3 | 7.2% | 7.2% | 302 µM | –
CCCc1ccc(OCC(O)Cn2cc(COc3ccc(Cl)cc3)nn2)c(OC)c1 (racemic) | 19.7 µM | 6.6 | 29.3% | 29.3% | 132 µM | IC50 (Trypanosoma cruzi [6]): 20.7 µM; Activity [7]: Toxic; Activity [8]: Non-Toxic; Activity [9]: Non-Toxic; Activity [10]: Non-Toxic; Activity [11]: Non-Toxic; Activity [12]: Non-Toxic; Activity [13]: Non-Toxic; Activity (Trypanosoma cruzi [14]): inactive
COc1ccccc1OCC(O)Cn1cc(COc2ccc(Cl)cc2)nn1 (racemic) | 121 µM | 3.1 | 7.2% | 7.2% | 380 µM | –
CCCc1ccc(OCC(Cn2cc(-c3ccccc3)nn2)OC)c(OC)c1 (racemic) | 198 µM | 2.8 | 7.2% | 7.2% | 555 µM | –
C=CCc1ccc(OCC(O)Cn2cc(COc3ccccc3)nn2)c(OC)c1 (racemic) | 256 µM | 1.6 | 7.2% | 7.2% | 410 µM | –
COc1ccccc1OCC(O)Cn1cc(-c2ccccc2)nn1 (racemic) | 126 µM | 3.3 | 7.2% | 7.2% | 422 µM | –
CCCc1ccc(OCC(O)Cn2cc(-c3ccccc3)nn2)c(OC)c1 (racemic) | 53.7 µM | 0.3 | 17% | 17% | 16.8 µM | IC50 (Trypanosoma cruzi [15]): 42.8 µM; inhibition in vivo at 100 mg/kg (Trypanosoma cruzi [16]): 50%
COc1ccccc1OCC(O)Cn1cc(COc2ccc([N+](=O)[O-])cc2)nn1 (racemic) | 60.8 µM | 2.1 | 7.2% | 7.2% | 134 µM | –
C=CCc1ccc(OCC(O)Cn2cc(COc3ccc(Cl)cc3)nn2)c(OC)c1 (racemic) | 37 µM | 1.5 | 7.2% | 7.2% | 58.1 µM | –
COc1ccc(OCc2cn(CC(O)COc3ccccc3OC)nn2)cc1 (racemic) | 113 µM | 4.1 | 7.2% | 7.2% | 469 µM | –
C=CCc1ccc(OCC(O)Cn2cc(COc3ccc(OC)cc3)nn2)c(OC)c1 (racemic) | 190 µM | 8.9 | 7.2% | 7.2% | – | IC50 (H9c2): 1690 µM
CCCc1ccc(OCC(Cn2cc(-c3ccccc3)nn2)OCc2ccccc2)c(OC)c1 (racemic) | 335 µM | > 1.1 | 7.2% | 7.2% | > 400 µM | –
CCCc1ccc(OCC(O)Cn2ccnn2)c(OC)c1 (racemic) | 212 µM | 3.5 | 7.2% | 7.2% | 743 µM | –
CCCc1ccc(OCC(O)Cn2cc(COc3ccccc3)nn2)c(OC)c1 (racemic) | 75.8 µM | 2.7 | 7.2% | 7.2% | 211 µM | –
C=CCc1ccc(OCC(O)Cn2cc(COc3ccc([N+](=O)[O-])cc3)nn2)c(OC)c1 (racemic) | 149 µM | 2.1 | 7.2% | 7.2% | 323 µM | –
COc1ccccc1OCC(O)Cn1cc(COc2ccccc2)nn1 (racemic) | 112 µM | 3.8 | 7.2% | 7.2% | 437 µM | –
O=C(Cn1ccnc1[N+](=O)[O-])NCc1ccccc1 [BENZNIDAZOLE] | 21.5 µM | 78.4 | – | – | – | IC50 (H9c2): 1690 µM; IC50 (Trypanosoma cruzi [6]): 12.7 µM; inhibition in vivo at 100 mg/kg (Trypanosoma cruzi [17]): 100%; inhibition (Mus musculus [18]): Active; inhibition (Mus musculus [19]): Active; inhibition (Mus musculus [20]): Active
